# Measurements as given in patent US20070027080A1, “Method for treatment of vitiligo” (priority 2005, published 2007).
# What was measured:
# fast spreading vitiligo = experiment: Clinical trial: disease activity (arrest of spread) of fast spreading vitiligo, OMP of beta methasone with or without the peptide; assay type: in vivo, human
# Text: (§1) That this happens was shown in a clinical trial on human volunteers. The above twin objectives were accomplished. FIG. 2a describes two vitiligo patches at the start of treatment of oral steroids, while 2b describes the same patches at the end of 3 months of treatment with oral steroids while at the same time bFGF peptide(s) lotion was applied locally once a day on the lower vitiligo patch for the duration of intake of oral steroids. […] The arrest of the fast spread of the disease was accomplished to the same extent of 88% at the end of 6 months of treatment with oral steroids and the result was not altered by the local application of bFGF peptide(s) lotion (See table 3 for more details)
# [1] = system: vitiligo patches of volunteers; experiment: Clinical trial: repigmentation of vitiligo patches, OMP of beta methasone with or without local application of the peptide; assay type: in vivo, human
# Text: as §1
# At the end of 3 months of combinatorial treatment with steroids and local application of bFGF peptide(s) lotion more than 3 fold more patients got pigmented to a marked extent than with steroid alone (See Table 4 for more details). The percentage of volunteers who had moderate and marked rate of repigmentation with combinatorial therapy at the end of three months of treatment is twice than with the steroid therapy alone.
structure (smiles),measurement,setting,value
"C[C@H]1C[C@H]2[C@@H]3CCC4=CC(=O)C=C[C@]4(C)[C@@]3(F)[C@@H](O)C[C@]2(C)[C@@]1(O)C(=O)CO [OMP Alone, beta methasone]",No. of patients where the disease was arrested with time,fast spreading vitiligo; At 3 months,12
same,Percentage of patients where the disease was arrested,fast spreading vitiligo; At 3 months,75%
same,No. of patients where the disease was arrested with time,fast spreading vitiligo; At 6 months,14
same,Percentage of patients where the disease was arrested,fast spreading vitiligo; At 6 months,87.50%
same,Percentage of patients where the disease was arrested,"fast spreading vitiligo; At 6 months, listed as oral steroids",88%
same,"Marked repigmentation, % of volunteers",[1]; At 3 months,12.5%
same,"Marked repigmentation, number of volunteers",[1]; At 3 months,2
same,"Minimal repigmentation, % of volunteers",[1]; At 3 months,68.75%
same,"Minimal repigmentation, number of volunteers",[1]; At 3 months,11
same,"Moderate repigmentation, % of volunteers",[1]; At 3 months,18.75%
same,"Moderate repigmentation, number of volunteers",[1]; At 3 months,3
same,"Marked repigmentation, % of volunteers",[1]; At 6 months,25%
same,"Marked repigmentation, number of volunteers",[1]; At 6 months,4
same,"Minimal repigmentation, % of volunteers",[1]; At 6 months,50%
same,"Minimal repigmentation, number of volunteers",[1]; At 6 months,8
same,"Moderate repigmentation, % of volunteers",[1]; At 6 months,25%
same,"Moderate repigmentation, number of volunteers",[1]; At 6 months,4
